Data taken from patent US11116817B2, “Antimicrobial agents and compositions comprising the same” (THE CURATORS OF THE UNIVERSITY OF MISSOURI, priority 2017, dated 2021).
Positions of bridges follow the written chain, without caps; N, C: chain ends. No end group written: not given here.

What was measured:
[1] = tested on: CHO-K1 cells; assay: Cell cytotoxicity assay (MTT); assay type: cell-based, hamster
Method: The Cell Cytotoxicity Assay includes the following procedures. Mouse immature dendritic cell line, JAWSII (ATCC CRL-11904™), was cultured in Alpha minimum essential medium with ribonucleosides, deoxyribonucleosides, 4 mM L-glutamine, 1 mM sodium pyruvate, and 5 ng/ml murine Granulocyte macrophage colony-stimulating factor (GM-CSF) then supplemented with 20% FBS, 100 U/ml penicillin, and 100 μg/ml streptomycin at 37° C. in humidified air with 5% CO2. CCR-2 transfected CHO-K1 cells were cultured in RPMI-1640 supplemented with 10% FBS, 2 mM L-glutamine, 100 units/ml penicillin and streptomycin, and 500 μg/ml G418 at 37° C. in humidified air with 5% CO2. The cytotoxicity of CAMPs (SEQ ID NOs: 1, 2, 3, and 4) to JASWII and CHO-K1 cells was determined using MTT (3-(4,5-dimethylthiazol-2-yl)-2,5-diphenyltetrazolium bromide, Thermo Fisher Scientific) cell proliferation assay. Cells (5×10^3 cells/well) in 96-well microtiter plates were treated with peptides at 64, 128, 256, and 512 μg/ml for 4, 12, 24, and 48 hours at 37° C. After treatment, 20 μl of 12 mM MTT solution was added to each well and the plate was incubated for 4 hours. The medium in each well was replaced with 100 μl of dimethyl sulfoxide (DMSO, Sigma-Aldrich) to dissolve MTT crystals. The plates were read using a spectrophotometer at 540 nm. The viability of treated cells was expressed as the percentage of viability relative to the untreated control. The experiment was performed in triplicate.
Chicken macrophage cell lines MQ-NCSU and HD11 were maintained in RPMI-1640 media supplemented with 10% fetal bovine serum (FBS), 2% chicken serum, 100 U/ml penicillin and 100 μg/ml streptomycin (Sigma-Aldrich) at 37° C. in humidified air with 5% CO2. CHO-K1 cells were cultured in the same media without 2% chicken serum. For CCR2-transfected CHO-K1 cells, medium was supplemented with 500 μg/ml G418 was added (Sigma-Aldrich). Murine immature dendritic cell line JAWSII (ATCC CRL-11904™) was cultured in Alpha minimum essential medium containing 4 mM L-glutamine, 1 mM sodium pyruvate, 5 ng/ml murine Granulocyte macrophage colony-stimulating factor (GM-CSF), 20% FBS, 100 U/ml penicillin and 100 μg/ml streptomycin at 37° C. in humidified air with 5% CO2. The cell cytotoxicity was determined using the MTT (3-(4,5-dimethylthiazol-2-yl)-2,5-diphenyltetrazolium bromide cell proliferation assay according to the manufacturer's instruction (Thermo Fisher Scientific). Briefly, cells (5×10^3 cells/well) were seeded in 96-well tissue culture plates, incubated overnight and treated with the analogues at concentrations of 4, 16, 64 and 256 μg/ml for 4, 12, 24 and 48 hours at 37° C. After treatment, […] 12 mM MTT solution was added to each well. The plate was incubated for 4 hours and read at 540 nm. Viability was expressed as percentage of viable cells relative to the untreated control. The experiments were performed in triplicate.

[2] = tested on: mouse red blood cells; assay type: cell-based
Method: The Hemolytic Assay includes the following procedures. Briefly, mouse red blood cells (RBCs, Innovative research, Novi, Mich.) were washed three times with phosphate-buffered saline (PBS, pH 7.4), centrifuged at 1000×g for 10 minutes, and re-suspended in PBS to 10% (v/v). The RBCs were treated with CAMPs (SEQ ID NOs: 1, 2, 3, and 4) at various concentrations ranging from 4 to 512 μg/ml (2-fold serial dilutions) at 37° C. for 1 hours. PBS and 0.2% Triton X-100 were used as negative and positive controls, respectively. The supernatant was transferred to a 96-well flat-bottomed polystyrene plate (Thermo Fisher Scientific), and the amount of hemoglobin released into the supernatant was determined by measuring the absorbance with a spectrophotometer at 540 nm. Hemolytic activity was expressed as the percentage of hemolysis and calculated using the following equation: hemolysis (%)=(As−A0)/(A100−A0)×100, where As is the absorbance of the sample, A100 is the absorbance of completely lysed RBCs in 0.2% Triton X-100, and A0 is the absorbance in the complete absence of hemolysis (PBS treatment). The assay was performed in triplicate. Therapeutic index (T.I.) was calculated according to a previously published formula: T.I.=MHC/MICGM. MHC was the minimum hemolytic concentration that caused 5% hemolysis of mouse RBCs. The MICGM was the minimum inhibitory concentration of the peptide concentrations against bacterial growth after the geometric mean was calculated. MICG− was the MICGM for Gram-negative bacteria; MICG+ was the MICGM for Gram-positive bacteria.

[3] = tested on: JAWSII cells; assay: Chemotaxis assay (48-well microchemotaxis chamber); assay type: cell-based, mouse; conditions: peptide 64 μg/ml
Method: (§1) Migration of JAWSII and CCR-2 transfected CHO-K1 cells in response to CAMPs (SEQ ID NOs: 1, 2, 3, and 4) was determined using a 48-well microchemotaxis chamber technique as previously described. Chemotaxis buffer (Minimum Essential Medium containing 0.1% BSA, 100 U/ml penicillin, and 100 μg/ml streptomycin) and bacterial peptide N-Formyl-methionyl-leucyl-phenylalanine (fMLF, Sigma-Aldrich) were included as negative and positive controls, respectively. The results were presented as chemotactic index (C.I.)=number of migrated cells induced by CAMPs (SEQ ID NOs: 1, 2, 3, and 4)/number of migrated cells induced by chemotactic buffer. The assay was repeated five times.
as §1, with “CCR2-CHO-K1” for “CCR-2 transfected CHO-K1”, “the analogues” for “CAMPs (SEQ ID NOs: 1, 2, 3, and 4)”, “For JAWSII cells, chemotaxis” for “Chemotaxis”, “(C.I.). C.I.=number” for “(C.I.)=number”, “the analogues/number” for “CAMPs (SEQ ID NOs: 1, 2, 3, and 4)/number”

[4] = tested on: P. aeruginosa (ATCC 27853); assay type: cell-based; conditions: low salt condition (5 mM NaCl)
Method: (§2) The minimum inhibitory concentrations (MIC) of AvBDs (SEQ ID NOs: 5, 6, 7, 8, 9, 10, 11, 12, and 13) were determined under low salt and standard conditions according to the guidelines of the Clinical and Laboratory Standards Institute (CLSI). […] An equal volume […] of bacterial suspension was added to each well of the plate. The final bacterial concentration in the wells was 5×10^5 CFU/ml. […] To complement MIC-1s assays, the minimum bactericidal concentrations (MBC) were evaluated by sub-culturing the contents of the first two clear wells obtained in the MIC-1s assay onto LB agar plates. All assays were conducted in triplicate. The lowest peptide concentration inhibiting about, at least, or more than 99% of bacterial growth was defined as MBC-1s. The analogues were regarded as bactericidal when the MBC was determined to be no more than four times the MIC.

[5] = tested on: S. aureus (ATCC 29213); assay type: cell-based; conditions: standard conditions, CLSI guidelines
Method: as §2

[6] = 64, 128, 256, and 512 μg/ml for 4 to 48 hours

Substance | effect on cell viability ([1]; concentration at about 128 μg/ml or greater) | T.I. of G+ (therapeutic index, MHC/MICGM) [2] | T.I. of G− (therapeutic index, MHC/MICGM) [2] | effect on cell viability [1, 6] | chemotactic index (C.I.) [3] | MBS-Is [4] [µg/mL] | MIC [5]
Ac-LRRLKPLIRPWLRPLRRWWW-NH2 [CAMP-A] | somewhat decreased | 6.54±2.01 | 8.72±2.41 | – | – | – | –
Ac-PIHRRIPPRWPRLKRRW-NH2 [CAMP-t2, PIHRRIPPRWPRLKRRW] | – | >13.45 ± 4.48 | >5.45 ± 2.54 | did not significantly affect cell viability | – | – | –
Ac-RKFLRRRGEVAHFSQKSLGLYCWWW-NH2 [CAMP-t1] | – | >3.27 ± 2.41 | >4.36 ± 1.21 | did not significantly affect cell viability | – | – | –
Ac-RRRWRKRRWWW-NH2 [CAMP-B, RRRWRKRRWWW] | – | > 12.36±4.18 | > 10.90±4.0 | did not significantly affect cell viability | – | – | –
GPDSCNHDRGLCRVGNCNPGEYLAKYCFEPVILCCKPLSPTPTKT (disulfide 5-34, 12-27, 17-35) [AvBD-12, reference compound] | – | – | – | – | 6.62 | >256 | >256^ μg/ml
